The assay deals with T1, human adenosine A2B receptor (Homo sapiens, UniProt P29275).
T1 construct: expressed in transfected cells; host or cells: CHO.K1
T1 sequence (P29275 1-332): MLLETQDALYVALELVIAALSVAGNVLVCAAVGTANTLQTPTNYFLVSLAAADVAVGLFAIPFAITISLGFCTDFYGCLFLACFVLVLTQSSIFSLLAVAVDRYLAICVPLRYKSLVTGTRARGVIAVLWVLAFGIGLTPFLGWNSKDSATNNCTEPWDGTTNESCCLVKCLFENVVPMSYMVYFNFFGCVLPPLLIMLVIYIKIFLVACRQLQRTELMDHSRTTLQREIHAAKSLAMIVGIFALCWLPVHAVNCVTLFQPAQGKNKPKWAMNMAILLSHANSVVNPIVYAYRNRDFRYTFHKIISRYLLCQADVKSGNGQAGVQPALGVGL
Put plainly: Inhibitory activity on NECA-induced cyclic AMP production in CHO.K1 cells expressing human adenosine A2B receptor. In kind it is cell-based. The note with it: 100 nM NECA, cAMP (HitHunter kit), 30-45 min incubation. The procedure:
Cells were cultured under 5%CO2/95% […] atmosphere at 37° C. in DMEM and D-MEM/F-12 (1:1 mixture) medium (Invitrogen, Grand Island, N.Y.) with 10% fetal calf serum (Invitrogen, Grand Island, N.Y.), 100 U/mL penicillin (Invitrogen, Grand Island, N.Y.), 100 U/mL streptomycin (Invitrogen, Grand Island, N.Y.), 1 mg/mL G418 (Invitrogen, Grand Island N.Y.) and 0.2 mg/mL Hygromycin B (Invitrogen, Carlsbad, Calif.). Experimental cultures were grown overnight as a monolayer in 384-well tissue culture plates (0.06 ml/well-7500 cells/well). Each well was washed once with 0.1 mL of Krebs buffer. To each well was added 50 uL of Krebs buffer containing 100 uM of the phosphodiesterase inhibitor 4-(3-butoxy-4-methoxybenzyl)-2-imidazolidinone, 100 nM NECA (Sigma-Aldrich, St. Louis, Mo.), 0.02% BSA Fraction V (Roche Biochemicals), the test compound (appropriate concentration). The final concentration of DMSO was 1.1%. After incubation for 30-45 min, the wells were emptied and blotted on paper towel to remove residual solution. The HitHunter™ cAMP Assay Kit from DiscoverX for adherent cells (Fremont, Calif.) was used for lysing the cells and measuring cAMP concentrations.

For `COC(=O)c1cccc(CN2CCN(C(=O)Nc3nc4c(OC)ncnc4s3)CC2)c1` [Example 10, 3-[4-(7-Methoxy-thiazolo[5,4-d]pyrimidin-2-ylcarbamoyl)-piperazin-1-ylmethyl]-benzoic acid methyl ester], inhibition was half-maximal at 0.03 µM (IC50).
Turning to `COC(=O)c1ccccc1S(=O)(=O)C1CCN(C(=O)Nc2nc3c(OC)ncnc3s2)CC1` [Example 76, 2-[1-(7-Methoxy-thiazolo[5,4-d]pyrimidin-2-ylcarbamoyl)-piperidine-4-sulfonyl]-benzoic acid methyl ester], the IC50 is 0.073 µM.
`COc1ncnc2sc(NC(=O)N3CCC(NCc4ccc(F)c(C(F)(F)F)c4)C3)nc12` (stereo in doubt) [Example 87, (R)-3-(4-Fluoro-3-trifluoromethyl-benzylamino)-pyrrolidine-1-carboxylic acid (7-methoxy-thiazolo[5,4-d]pyrimidin-2-yl)-amide] showed an IC50 of 0.002 µM.
As for `COc1ncnc2sc(NC(=O)N3CCC(n4c(=O)[nH]c5ccccc54)CC3)nc12` [Example 57, 4-(2-Oxo-2,3-dihydro-benzoimidazol-1-yl)-piperidine-1-carboxylic acid (7-methoxy-thiazolo[5,4-d]pyrimidin-2-yl)-amide], the figure is 0.052 µM.
`COc1ncnc2sc(NC(=O)N3CCc4cc(C(F)(F)F)ccc4C3)nc12` [Example 95, 6-Trifluoromethyl-3,4-dihydro-1H-isoquinoline-2-carboxylic acid (7-methoxy-thiazolo[5,4-d]pyrimidin-2-yl)-amide] came in with an IC50 of 0.115 µM.
As for `COc1ncnc2sc(NC(=O)N3CCC4(CC3)C(=O)NC[C@H]4c3ccc(F)cc3)nc12` [Example 31, 4-(4-Fluoro-phenyl)-1-oxo-2,8-diazaspiro[4,5]decane-8-carboxylic acid(7-methoxy-thiazolo[5,4-d]pyrimidin-2-yl)-amide], the figure is 0.009 µM; as for `COc1ncnc2sc(NC(=O)N3CCC(N4CCCC4c4ccccc4)CC3)nc12` (centres unmarked) [Example 62, 4-(2-Phenyl-pyrrolidin-1-yl)-piperidine-1-carboxylic acid (7-methoxy-thiazolo[5,4-d]pyrimidin-2-yl)-amide], 0.218 µM.
`COc1ncnc2sc(NC(=O)N3CCN(Cc4cccc(C(=O)O)c4O)CC3)nc12` [Example 27, 2-Hydroxy-3-[4-(7-methoxy-thiazolo[5,4-d]pyrimidin-2-ylcarbamoyl)-piperazin-1-ylmethyl]-benzoic acid] returned an IC50 of 1.56 µM.
In turn, `COc1ncnc2sc(NC(=O)N3CCN(Cc4cccc(OCCO)c4)CC3)nc12` [Example 16, 4-[3-(2-Hydroxy-ethoxy)-benzyl]-piperazine-1-carboxylic acid (7-methoxy-thiazolo[5,4-d]pyrimidin-2-yl)-amide] returned a half-inhibitory concentration (IC50) of 0.197 µM.
As for `CCOC(=O)C1(Cc2ccc(OC(F)(F)F)cc2)CCCN(C(=O)Nc2nc3c(OC)ncnc3s2)C1` (centres unmarked) [Example 54, 1-(7-Methoxy-thiazolo[5,4-d]pyrimidin-2-ylcarbamoyl)-3-(4-trifluoromethoxy-benzyl)-piperidine-3-carboxylic acid ethyl ester], the figure is 1.46 µM; as for `COc1ncnc2sc(NC(=O)N3CC=C(c4cccc(C(F)(F)F)c4)CC3)nc12` [Example 67, 4-(3-Trifluoromethyl-phenyl)-3,6-dihydro-2H-pyridine-1-carboxylic acid (7-methoxy-thiazolo[5,4-d]pyrimidin-2-yl)-amide], 0.051 µM; as for `COc1ncnc2sc(NC(=O)N3CCN(Cc4cccc(C(F)(F)F)c4)CC3)nc12` [Example 1, 4-(3-trifluoromethyl-benzyl)-piperazine-1-carboxylic acid (7-methoxy-thiazolo[5,4-d]pyrimidin-2-yl)-amide], 0.005 µM.
`COc1ncnc2sc(NC(=O)N3CCC4(CC3)CN(S(C)(=O)=O)c3ccc(Cl)cc34)nc12` [Example 48, 5-Chloro-1,2-dihydro-N-(7-methoxythiazole[5,4-d]pyrimidin-2-yl)-1-(methylsulfonyl)spiro[3H-indole-3,4′-piperidine]-1′-carboxamide] yielded a half-inhibitory concentration (IC50) of 0.009 µM.
As for `COc1ncnc2sc(NC(=O)N3CC[C@H](NC(=O)c4ccc(F)c(C(F)(F)F)c4)C3)nc12` [Example 89, (S)-3-(4-fluoro-3-trifluoromethyl-benzoylamino)-pyrrolidine-1-carboxylic acid (7-methoxy-thiazolo[5,4-d]pyrimidin-2-yl)-amide], the figure is 0.004 µM.

Broadly, the IC50 is the concentration needed to halve the response being measured. A lower IC50 goes with inhibition by little substance.

The record behind these values is patent US7947692B2, “Substituted thiazolo[5,4-d]pyrimidine urea derivatives” (Hoffmann-La Roche Inc., priority 2006, dated 2011).
